PubChem BioAssay AID1996
Values after ≈ are worked out from the molar mass of the structure shown. Non-standard residues stand in square brackets, D forms with d. Residues, ends and D or L forms follow the SMILES beside them. ξ: configuration not given here. *: point of attachment. Cbz = O=C(OCc1ccccc1)*; ξV = CC(C)C(N)C(=O)O

Details: buffer; pH 7.4; 200.0 µM

Compound | solubility kinetic
COc1ccc(CN(C)CC(=O)Nc2c(C)cccc2C)c(OC)c1 | > 51.4 µg/mL
CSc1ccc(C2CC(=O)Nc3c2c(=O)n(C)c(=O)n3C)cc1 (centres undefined) | > 49.7 µg/mL
Cc1nc2ccc(NC(=O)[C@H](C)N3C(=O)C4CC=CCC4C3=O)cc2s1 (some centres undefined) | > 55.4 µg/mL
O=c1[nH]c(NCCO)c(N=Cc2ccccc2)c(=O)[nH]1 | > 41.1 µg/mL
CC1C(=O)N2CCCc3cc(NC(=O)C(=O)NCc4cccnc4)cc1c32 (centres undefined) | > 54.7 µg/mL
CC(C)CNc1nc(N)c([N+](=O)[O-])c(N2CCCCCC2)n1 | 4.5 µg/mL (≈ 14.6 µM)
O=C(Nc1cscc1S(=O)(=O)c1ccccc1)c1ccccc1Cl | 10.3 µg/mL (≈ 27.3 µM)
COC(=O)c1ccc(S(=O)(=O)NCc2ccco2)o1 | 38.8 µg/mL (≈ 136 µM)
COc1cccc(NC(=S)NC(=O)c2cccnc2)c1 | 40 µg/mL (≈ 139 µM)
COc1ccccc1C(=O)OCC(=O)NC(C)CCc1ccccc1 (centres undefined) | > 51.2 µg/mL
Cc1cc(C(=O)OC(C)C(=O)NC2CCCCC2)c(C)o1 (centres undefined) | 15.7 µg/mL (≈ 53.5 µM)
CC1CCC2(CC1)NC(=O)N(CC(=O)Nc1cc(S(=O)(=O)N3CCCC3)ccc1Cl)C2=O (centres undefined) | 1.4 µg/mL (≈ 2.9 µM)
COc1cc2c(cc1OC)CN(C(=O)c1sccc1C)CC2 | 45.8 µg/mL (≈ 144 µM)
Cc1ccc(S(=O)(=O)N2CCN(C(=O)N(C)C)CC2)cc1 | > 46.7 µg/mL
Cc1ccc(/C=N/NC(=O)c2cccnc2)s1 | > 36.8 µg/mL
O=C(NC(=S)Nc1ccc(O)cc1)c1ccccc1Cl | 20.5 µg/mL (≈ 66.8 µM)
Cc1oc(S(=O)(=O)N2CCCCC2)cc1NC(=O)Nc1ccc(F)cc1 | 5.5 µg/mL (≈ 14.4 µM)
CCN(CC)c1ccc(NC(=O)c2ccc3c(c2)OCO3)c(C)c1 | 5.4 µg/mL (≈ 16.5 µM)
COc1cc(CC(=O)OCC(=O)NCc2ccco2)cc(OC)c1OC | > 54.5 µg/mL
CN(C(=O)COC(=O)c1ccc(C#N)cc1)c1ccccc1 | 19.4 µg/mL (≈ 65.9 µM)
FC(F)(F)c1ccnc(NCc2ccco2)n1 | 9.2 µg/mL (≈ 37.8 µM)
N#CCSc1ccc(S(=O)(=O)N2CCOCC2)cn1 | > 44.9 µg/mL
CC(C)CNC(=S)N1CCC(C(=O)c2ccc(F)cc2)CC1 | > 48.4 µg/mL
CCC(CC)NC(=O)COc1ccc(OC)cc1C=O | 30.7 µg/mL (≈ 110 µM)

Compound | solubility kinetic
COc1ccc(C(CC(=O)Nc2nccs2)C(C)C)cc1 (centres undefined) | 33.7 µg/mL (≈ 111 µM)
COc1cc([N+](=O)[O-])ccc1NC(=O)CSc1ccccn1 | 0.5 µg/mL (≈ 1.57 µM)
NC(=O)C1CCCN(C(=O)CCCNC(=O)c2ccc(Cl)cc2)C1 (centres undefined) | > 52.8 µg/mL
Nc1cc(N)nc(SCc2ccc(Cl)cc2)n1 | > 40 µg/mL
N/C(=N\[N+](=O)[O-])N1CCN(C(=O)OC2CCCC2)CC1 | > 42.8 µg/mL
Brc1cccc(Nc2nc(-c3cccnc3)cs2)c1 | < 0.2 µg/mL
CN(C)S(=O)(=O)c1ccc(C(=O)NC(=O)CSc2nncs2)cc1 | > 58 µg/mL
Cc1cccc(C)c1NC(=O)C1CCN(S(C)(=O)=O)CC1 | > 46.6 µg/mL
CSc1ccc(CNCCN2CCOCC2)cc1.Cl | > 50.9 µg/mL
COc1ccc(CCNC(=O)c2noc(C)c2[N+](=O)[O-])cc1OC | > 50.3 µg/mL
Cc1nnc(SCC(=O)NC2CC2)n1-c1ccccc1 | > 43.3 µg/mL
CC1C(=O)N2CCCc3cc(NC(=O)C4CCCCC4)cc1c32 (centres undefined) | > 46.9 µg/mL
O=C(Nc1cc(-c2nc3ncccc3o2)ccc1Cl)c1ccco1 | 4.4 µg/mL (≈ 13 µM)
COc1cc(CO)ccc1OCC(=O)N1CCc2ccccc21 | > 47 µg/mL
Clc1nccc(NCc2ccccc2)n1 | > 33 µg/mL
C1CN(c2nc(N3CCOCC3)nc(N3CCOCC3)n2)CCO1 | 20.6 µg/mL (≈ 61.2 µM)
COc1cccc(NC(=S)N2CCN(C)CC2)c1 | > 39.8 µg/mL
CC(NCCC1(Cc2ccccc2Cl)CCOC(C)(C)C1)c1cccs1 (centres undefined) | 46.3 µg/mL (≈ 118 µM)
COC(=O)c1sccc1NC(=O)c1ccc(C(C)C)cc1 | < 0.6 µg/mL
CCNC(=O)NNC(=O)C1CC(c2cccnc2)=NO1 (centres undefined) | > 41.6 µg/mL
O=C1OCc2nc3cc4c(cc3c(-c3ccc(F)cc3)c21)OCO4 | 1.2 µg/mL (≈ 3.71 µM)
NC(N)=NC1=NC(=O)C(Cc2ccccc2)S1 (centres undefined) | > 37.2 µg/mL
Cc1noc(C)c1C(=O)OC(C)C(=O)Nc1ccc2c(c1)OCO2 (centres undefined) | 11.8 µg/mL (≈ 35.5 µM)
CSc1ccccc1-c1nc(-c2ccncc2)no1 | 1.2 µg/mL (≈ 4.46 µM)

Compound | solubility kinetic
CC(Sc1ncccn1)C(=O)Nc1ccc2c(c1)OCCO2 (centres undefined) | > 47.6 µg/mL
N#Cc1cccc(C#N)c1NCC1CCCO1 (centres undefined) | > 34.1 µg/mL
Cc1ccc(NC(=O)Nc2ccc3c(c2)C(=O)OC3)cc1Cl | < 0.3 µg/mL
CN(C)/C=C1\C(=O)Oc2ccccc2C1=O | 32.4 µg/mL (≈ 149 µM)
Cc1ccc([N+](=O)[O-])cc1S(=O)(=O)Nc1cccc(S(=O)(=O)NC2=NCCC2)c1 | > 65.8 µg/mL
O=C(NC(=S)Nc1ccc2oc(=O)ccc2c1)c1ccccc1F | 1.4 µg/mL (≈ 4.09 µM)
CCC(CC)C(=O)Nc1ccc(C(=O)Nc2cc(C)on2)cc1 | 5.7 µg/mL (≈ 18.1 µM)
CCOC(=O)c1cc2c(=O)c3cc(C)ccc3oc2nc1C | < 0.6 µg/mL
O=C(NCc1ccccc1)c1nccnc1CO | > 36.5 µg/mL
Cc1ccc(C)c(OCCCC(=O)NC2CCCCC2)c1 | 3 µg/mL (≈ 10.4 µM)
Cc1ccc(NC(=O)CN(C)C(=S)NC2CC2)cc1 | > 41.6 µg/mL
C=CCNc1nc(NCc2ccccc2)c(C#N)c2c1CN(C)CC2 | 3 µg/mL (≈ 9 µM)
CCN(Cc1ccccc1)C(=O)COC(=O)c1cc(Cl)nc(Cl)c1 | > 55.1 µg/mL
CC1SCC(NC(=O)c2cccc(Cl)c2)CS1 (centres undefined) | > 43.2 µg/mL
CC1=C(C(N)=O)C(c2cccs2)NC(=O)N1 (centres undefined) | > 35.6 µg/mL
CCCCCCC(=O)N(O)C1CC(=O)N(c2ccc(F)cc2)C1=O (centres undefined) | > 50.5 µg/mL
CCn1cc(C2=NC(CCSC)CO2)c2ccccc21 (centres undefined) | 34 µg/mL (≈ 118 µM)
COC(=O)c1ccc(OC(=O)c2cnccn2)cc1 | > 38.7 µg/mL
O=C1CCCN1S(=O)(=O)c1ccc(F)cc1 | > 36.5 µg/mL
CCOC(=O)c1cc(NCc2cccs2)ccc1N1CCOCC1 | 50.4 µg/mL (≈ 145 µM)
COC(=O)/C(C#N)=C/c1c(Oc2cccc(C)c2C)nc2ccccn2c1=O | 1 µg/mL (≈ 2.66 µM)
CC(=NCc1cccnc1)c1c(O)n(-c2ccc(Cl)cc2)c(=O)[nH]c1=O | 2 µg/mL (≈ 5.39 µM)
COc1ccc(N2CCC(CNC(=O)Nc3cccc(OC)c3)C2)cc1 (centres undefined) | 34.5 µg/mL (≈ 97.1 µM)
O=C(NCCOc1ccc(Cl)cc1)c1ccc2ccccc2n1 | 4 µg/mL (≈ 12.2 µM)

Compound | solubility kinetic
O=C(CNC(=O)C1CCCCC1)OCC(=O)c1ccc(Br)cc1 | 27.6 µg/mL (≈ 72.2 µM)
O=C(Nc1ccc(N2CCCC2)cc1)c1cccc(Cl)c1 | < 0.3 µg/mL
Cc1cc(C=NCCO)c(C)n1-c1cc(Cl)ccc1Cl | 29.2 µg/mL (≈ 93.8 µM)
CN1C(=O)Nc2cccc3cccc1c23 | 10.1 µg/mL (≈ 51 µM)
Cc1c(C(=O)N2CCc3ccccc3C2)oc2ccccc12 | 7.5 µg/mL (≈ 25.7 µM)
CCNc1nc2c(c(=O)n(C)c(=O)n2C)n1CCCc1ccccc1 | 38.2 µg/mL (≈ 112 µM)
COc1ccc2o/c(=N\O)c(C(=O)Nc3ccc(C)cc3)cc2c1 | 11.7 µg/mL (≈ 36.1 µM)
CC(C)Oc1ccc(C2CC(=O)NC2=O)cc1 (centres undefined) | > 35 µg/mL
O=C1CN(C(=O)CNCc2ccc(Cl)cc2)c2ccccc2N1 | 39.7 µg/mL (≈ 120 µM)
O=C(O)c1ccc(Cn2cnc3cccnc32)cc1 | > 38 µg/mL
O=C(CS(=O)CC(=O)NC12CC3CC(CC(C3)C1)C2)Nc1ccc(F)cc1 (centres undefined) | 16.2 µg/mL (≈ 41.3 µM)
COc1ccc(CNC(=O)COC(=O)[C@H](Cc2ccccc2)NC(=O)c2cccs2)cc1 | 51 µg/mL (≈ 113 µM)
COc1ccc(CCC(=O)Nc2ncc(C)s2)cc1 | 4.1 µg/mL (≈ 14.8 µM)
CC(=O)N1CCCC1(C(=O)O)c1ccccc1 (centres undefined) | 33.8 µg/mL (≈ 145 µM)
COc1ccc(OC)c(/C=C/c2ccc3cccc(O)c3n2)c1 | < 0.7 µg/mL
Cc1ccc(-c2nc(N)sc2-c2ccc(C)cc2)cc1 | 0.5 µg/mL (≈ 1.78 µM)
CN1CCc2c(OCC(=O)N3CCCc4ccccc43)cccc2C1=O | > 52.6 µg/mL
COC(=O)CNC(=O)C(NC(=O)OCc1ccccc1)C(C)C (centres undefined) (Cbz-[ξV]-Gly-OMe) | > 48.4 µg/mL
CCOc1ccc(NC(=O)c2ccc(CC)s2)c([N+](=O)[O-])c1 | < 0.3 µg/mL
O=C(NCC1CCCO1)c1cccnc1NCc1ccc(F)cc1 (centres undefined) | > 49.4 µg/mL
O=C(Nc1ccc2c(c1)OCO2)c1ccc(CO)cc1 | > 40.7 µg/mL
CCN(CC)c1ccc(N=Cc2c(O)n(CCc3ccc(OC)c(OC)c3)c(=O)[nH]c2=O)cc1 | 9.5 µg/mL (≈ 20.4 µM)
CCN1CCN(CCC(=O)Nc2ccc(C)cc2)CC1.Cl | > 46.8 µg/mL
NC(=O)NC(=O)COC(=O)c1cccnc1Nc1ccccc1F | 4.6 µg/mL (≈ 13.8 µM)

Compound | solubility kinetic
CSc1ncccc1C(=O)Nc1nc2ccc(F)cc2s1 | 1.8 µg/mL (≈ 5.64 µM)
CCCS(=O)(=O)c1csc(C(=O)OC)c1N | 28.7 µg/mL (≈ 109 µM)
COc1ccc(Nc2nc(C)cc(C)n2)cc1Cl.Cl | > 45 µg/mL
CN(C)CCN(C(=O)c1ccc2ccccc2c1)c1nc2ccc(F)cc2s1.Cl | 30 µg/mL
N#CCCN(C(=O)COC(=O)CCC(=O)c1cccs1)c1ccccc1 | > 55.6 µg/mL
O=C(c1cc2cc(Cl)ccc2[nH]1)N1CCc2ccccc2C1 | 0.9 µg/mL (≈ 2.9 µM)
OCCN1CCN(c2cc(C(F)(F)F)nc3ccccc23)CC1 | > 48.8 µg/mL
O=C(CSc1ncccn1)NCc1cccc(Cl)c1 | > 44.1 µg/mL
COc1ccc(Cl)cc1NC(=O)COC(=O)c1ccc(Br)o1 | 2.6 µg/mL (≈ 6.69 µM)
COc1ccc(NC(=O)c2ccc3c(c2)OCO3)cc1 | 3.8 µg/mL (≈ 14 µM)
Cc1c(C)c(C)c2[nH]c(=S)[nH]c2c1C | 0.4 µg/mL (≈ 1.94 µM)
CN(CC12CC3CC(CC(C3)C1)C2)C(=O)c1ccco1 | 37.8 µg/mL (≈ 138 µM)
CC(C)(C)c1ccc(C(=O)NC(=S)N2CCOCC2)cc1 | > 46 µg/mL
CCCN1CCC(N2CCN(c3ccc([N+](=O)[O-])cc3)CC2)CC1 | 32.3 µg/mL (≈ 97.2 µM)
CC(=O)Oc1ccccc1-n1c(C)nc(=O)c(-c2ccccc2)c1C | 48.9 µg/mL (≈ 146 µM)
CCCCN(C)CCNC(=O)c1cn(C)c(=O)c2c1c1ccccc1n2C | > 55.3 µg/mL
CSc1nc(C(C)C)ccc1CNC(=O)CC(C)c1ccccc1 (centres undefined) | 1.3 µg/mL (≈ 3.8 µM)
O=C(Nc1cc2c3c(c1)CC(=O)N3CCC2)c1ccc(F)cc1 | > 46.5 µg/mL
CC1(C)C[C@@H]2C[C@@](C)(CN2C(=O)c2ccccc2)C1 | 36.5 µg/mL (≈ 142 µM)
CCN(c1ccccc1)S(=O)(=O)c1ccc(Cl)c(NC(=O)CNC(C)c2ccccc2)c1 (centres undefined) | 3.2 µg/mL (≈ 6.78 µM)
Cc1cc(C)nc(N2CCCC(C(=O)NC(C)C)C2)n1 (centres undefined) | 41.1 µg/mL (≈ 149 µM)
COc1cc(C)ccc1OCC(=O)NCC1CCCO1 (centres undefined) | > 41.9 µg/mL
COc1ccc(Nc2cc(Nc3cccc(OC)c3)ncn2)cc1 | 0.5 µg/mL (≈ 1.55 µM)
